Results taken from ChEMBL document CHEMBL1201861, “Genomics of Drug Sensitity in Cancer screening data, Wellcome Trust Sanger Institute”.
Where a name gives a salt, the structure may show the parent alone.

Key:
Assay in all cases: cells
CAL-33 = format: functional, cell-based, Homo sapiens; conditions: Homo sapiens, CAL-33;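 further: growth inhibition of CAL-33 cells, read out with a cell viability assay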
Description: SANGER: Inhibition of human CAL-33 cell growth in a cell viability assay.

G-402 = format: functional, cell-based, Homo sapiens; conditions: Homo sapiens, G-402
Description: SANGER: Inhibition of human G-402 cell growth in a cell viability assay.

HMV-2 cell line = format: functional, cell-based, Homo sapiens; conditions: Homo sapiens, HMV-2;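 further: growth inhibition of HMV-II cells, read out with a cell viability assay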
Description: SANGER: Inhibition of human HMV-II cell growth in a cell viability assay.

NCI-H2452 = format: functional, cell-based, Homo sapiens; conditions: Homo sapiens, NCI-H2452;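 further: growth inhibition of NCI-H2452 cells, read out with a cell viability assay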
Description: SANGER: Inhibition of human NCI-H2452 cell growth in a cell viability assay.

U-118-MG = format: functional, cell-based, Homo sapiens; conditions: Homo sapiens, U-118-MG
Description: SANGER: Inhibition of human U-118-MG cell growth in a cell viability assay.

WM-115 = format: functional, cell-based, Homo sapiens; conditions: Homo sapiens, WM-115
Description: SANGER: Inhibition of human WM-115 cell growth in a cell viability assay.

23132-87 = format: functional, cell-based, Homo sapiens; conditions: Homo sapiens
Description: SANGER: Inhibition of human 23132-87 cell growth in a cell viability assay.

BHY = format: functional, cell-based, Homo sapiens; conditions: Homo sapiens, BHY;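 further: cell growth inhibition read out by a viability assay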
Description: SANGER: Inhibition of human BHY cell growth in a cell viability assay.

BFTC-909 = format: functional, cell-based, Homo sapiens; conditions: Homo sapiens, BFTC-909
Description: SANGER: Inhibition of human BFTC-909 cell growth in a cell viability assay.

NCI-H358 = format: functional, cell-based, Homo sapiens; conditions: Homo sapiens, NCI-H358;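 further: growth inhibition of NCI-H358 human cells, read out with a cell viability assay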
Description: SANGER: Inhibition of human NCI-H358 cell growth in a cell viability assay.

MKN-1 = format: functional, cell-based, Homo sapiens; conditions: Homo sapiens, MKN-1;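 further: growth inhibition of human MKN1 cells, read out by a cell viability measurement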
Description: SANGER: Inhibition of human MKN1 cell growth in a cell viability assay.

LC4-1 = format: functional, cell-based, Homo sapiens; conditions: Homo sapiens, LC4-1;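 further: growth inhibition of LC4-1 cells, read out with a cell viability assay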
Description: SANGER: Inhibition of human LC4-1 cell growth in a cell viability assay.

Raji = format: functional, cell-based, Homo sapiens; conditions: Homo sapiens, Raji;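 further: cell viability assay measuring inhibition of Raji cell growth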
Description: SANGER: Inhibition of human Raji cell growth in a cell viability assay.

C32 = format: functional, cell-based, Homo sapiens; conditions: Homo sapiens, C32;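 further: cell viability assay, with IC50 reflecting inhibition of C32 cell growth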
Description: SANGER: Inhibition of human C32 cell growth in a cell viability assay.

CAL-12T = format: functional, cell-based, Homo sapiens; conditions: Homo sapiens, CAL-12T;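 further: growth inhibition of human CAL-12T cells, read out with a cell viability assay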
Description: SANGER: Inhibition of human CAL-12T cell growth in a cell viability assay.

A-427 = format: functional, cell-based, Homo sapiens; conditions: Homo sapiens, A-427;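 further: growth inhibition of human A-427 cells, read out by a cell viability assay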
Description: SANGER: Inhibition of human A427 cell growth in a cell viability assay.

NCI-H810 = format: functional, cell-based, Homo sapiens; conditions: Homo sapiens, NCI-H810;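 further: IC50 reflects inhibition of cancer cell line growth, read out with a cell viability assay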
Description: SANGER: Inhibition of human NCI-H810 cell growth in a cell viability assay.

SF-295 = format: functional, cell-based, Homo sapiens; conditions: Homo sapiens, SF-295;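 further: growth inhibition of SF-295 cells, read out with a cell viability assay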
Description: SANGER: Inhibition of human SF295 cell growth in a cell viability assay.

IGROV-1 = format: functional, cell-based, Homo sapiens; conditions: Homo sapiens, IGROV-1;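 further: reduction of IGROV-1 cell growth, read out with a viability assay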
Description: SANGER: Inhibition of human IGROV-1 cell growth in a cell viability assay.

MKN-7 = format: functional, cell-based, Homo sapiens; conditions: Homo sapiens, MKN-7;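 further: growth inhibition of MKN-7 cells, read out with a cell viability assay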
Description: SANGER: Inhibition of human MKN7 cell growth in a cell viability assay.

SK-MM-2 = format: functional, cell-based, Homo sapiens; conditions: Homo sapiens, SK-MM-2;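 further: growth inhibition of human SK-MM-2 cells, read out with a cell viability assay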
Description: SANGER: Inhibition of human SK-MM-2 cell growth in a cell viability assay.

CMK = format: functional, cell-based, Homo sapiens; conditions: Homo sapiens, CMK;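 further: growth inhibition of CMK cells, read out as cell viability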
Description: SANGER: Inhibition of human CMK cell growth in a cell viability assay.

Capan-2 = format: functional, cell-based, Homo sapiens; conditions: Homo sapiens, Capan-2;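 further: Capan-2 cell growth inhibition, read out with a viability assay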
Description: SANGER: Inhibition of human Capan-2 cell growth in a cell viability assay.

PANC-08-13 = format: functional, cell-based, Homo sapiens; conditions: Homo sapiens, PANC-08-13;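 further: cell growth inhibition, measured with a cell viability assay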
Description: SANGER: Inhibition of human PANC-08-13 cell growth in a cell viability assay.

Daoy = format: functional, cell-based, Homo sapiens; conditions: Homo sapiens, Daoy;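 further: daoy cell growth inhibition, read out as cell viability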
Description: SANGER: Inhibition of human Daoy cell growth in a cell viability assay.

HuCCT-1 = format: functional, cell-based, Homo sapiens, HuCCT1; conditions: Homo sapiens, HuCCT-1;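 further: growth inhibition of HuCCT-1 cells, read out by a cell viability assay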
Description: SANGER: Inhibition of human HuCCT1 cell growth in a cell viability assay.

SW948 = format: functional, cell-based, Homo sapiens; conditions: Homo sapiens, SW948;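 further: growth inhibition of SW948 cells, read out with a cell viability assay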
Description: SANGER: Inhibition of human SW948 cell growth in a cell viability assay.

BC-3 = format: functional, cell-based, Homo sapiens; conditions: Homo sapiens, BC-3;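 further: cell viability assay measuring growth inhibition of human BC-3 cells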
Description: SANGER: Inhibition of human BC-3 cell growth in a cell viability assay.

NCI-H1694 = format: functional, cell-based, Homo sapiens; conditions: Homo sapiens, NCI-H1694;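 further: cell viability assay measuring inhibition of growth in human NCI-H1694 cells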
Description: SANGER: Inhibition of human NCI-H1694 cell growth in a cell viability assay.

LU-99A = format: functional, cell-based, Homo sapiens; conditions: Homo sapiens, LU-99A;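 further: growth inhibition of LU-99A cells, read out with a cell viability assay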
Description: SANGER: Inhibition of human LU-99A cell growth in a cell viability assay.

SN12C = format: functional, cell-based, Homo sapiens; conditions: Homo sapiens, SN12C;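 further: growth inhibition of human SN12C cells, measured by a cell viability assay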
Description: SANGER: Inhibition of human SN12C cell growth in a cell viability assay.

A673 = format: functional, cell-based, Homo sapiens; conditions: Homo sapiens, A673;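 further: growth inhibition of human A673 cells, read out through a cell viability assay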
Description: SANGER: Inhibition of human A673 cell growth in a cell viability assay.

RMG-I = format: functional, cell-based, Homo sapiens; conditions: Homo sapiens, RMG-I;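 further: growth inhibition of human RMG-I cells, read out with a cell viability assay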
Description: SANGER: Inhibition of human RMG-I cell growth in a cell viability assay.

MHH-CALL-2 = format: functional, cell-based, Homo sapiens; conditions: Homo sapiens, MHH-CALL-2;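 further: growth inhibition of the cell line, read out in a cell viability assay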
Description: SANGER: Inhibition of human MHH-CALL-2 cell growth in a cell viability assay.

SW626 = format: functional, cell-based, Homo sapiens; conditions: Homo sapiens, SW626;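 further: growth inhibition of SW626 cells, measured with a cell viability assay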
Description: SANGER: Inhibition of human SW626 cell growth in a cell viability assay.

TCC-SUP = format: functional, cell-based, Homo sapiens; conditions: Homo sapiens, TCC-SUP;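 further: growth inhibition of TCC-SUP cells, read out with a cell viability assay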
Description: SANGER: Inhibition of human TCCSUP cell growth in a cell viability assay.

K052 = format: functional, cell-based, Homo sapiens; conditions: Homo sapiens, K052;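 further: Read-out from a cell viability assay, IC50 reflecting suppression of K052 cell growth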
Description: SANGER: Inhibition of human K052 cell growth in a cell viability assay.

SK-HEP1 = format: functional, cell-based, Homo sapiens, SK-HEP-1; conditions: Homo sapiens, SK-HEP1;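 further: cell viability readout used to quantify reduction in proliferation of human SK-HEP-1 cells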
Description: SANGER: Inhibition of human SK-HEP-1 cell growth in a cell viability assay.

EFO-27 = format: functional, cell-based, Homo sapiens; conditions: Homo sapiens, EFO-27;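 further: growth inhibition of EFO-27 cells, read out with a cell viability assay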
Description: SANGER: Inhibition of human EFO-27 cell growth in a cell viability assay.

OVCAR-5 = format: functional, cell-based, Homo sapiens; conditions: Homo sapiens, OVCAR-5;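 further: growth inhibition of human OVCAR-5 cells, read out with a cell viability assay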
Description: SANGER: Inhibition of human OVCAR-5 cell growth in a cell viability assay.

NCI-H1436 = format: functional, cell-based, Homo sapiens; conditions: Homo sapiens, NCI-H1436;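 further: growth suppression of human NCI-H1436 cells, determined with a cell viability readout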
Description: SANGER: Inhibition of human NCI-H1436 cell growth in a cell viability assay.

HT55 = format: functional, cell-based, Homo sapiens; conditions: Homo sapiens, HT55;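 further: cell viability readout measuring growth inhibition of human HT55 cells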
Description: SANGER: Inhibition of human HT55 cell growth in a cell viability assay.

NCI-H748 = format: functional, cell-based, Homo sapiens; conditions: Homo sapiens, NCI-H748;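 further: growth inhibition of NCI-H748 cells, measured by a cell viability assay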
Description: SANGER: Inhibition of human NCI-H748 cell growth in a cell viability assay.

G-361 = format: functional, cell-based, Homo sapiens; conditions: Homo sapiens, G-361

**Q.** Which IC50 (CAL-33) does the source give for `Oc1ccc2ccccc2c1SSc1c(O)ccc2ccccc12` here?
**A.** > 32000 nM

**Q.** What about the IC50 (G-402) of the same compound?
**A.** > 32000 nM

**Q.** What about the IC50 (HMV-2 cell line) of the same compound?
**A.** > 32000 nM

**Q.** What about the IC50 (NCI-H2452) of the same compound?
**A.** > 32000 nM

**Q.** And the IC50 (U-118-MG)?
**A.** > 32000 nM

**Q.** And the IC50 (WM-115)?
**A.** > 32000 nM

**Q.** What about the IC50 (23132-87) of the same compound?
**A.** > 32000 nM

**Q.** And the IC50 (BHY)?
**A.** 24500 nM

**Q.** What about the IC50 (BFTC-909) of the same compound?
**A.** > 32000 nM

**Q.** And the IC50 (NCI-H358)?
**A.** > 32000 nM

**Q.** And the IC50 (MKN-1)?
**A.** > 32000 nM

**Q.** And the IC50 (LC4-1)?
**A.** > 32000 nM

**Q.** What about the IC50 (Raji) of the same compound?
**A.** > 32000 nM

**Q.** What about the IC50 (C32) of the same compound?
**A.** > 32000 nM

**Q.** What about the IC50 (CAL-12T) of the same compound?
**A.** 5640 nM

**Q.** And the IC50 (A-427)?
**A.** > 32000 nM

**Q.** And the IC50 (NCI-H810)?
**A.** > 32000 nM

**Q.** What about the IC50 (SF-295) of the same compound?
**A.** > 32000 nM

**Q.** And the IC50 (IGROV-1)?
**A.** > 32000 nM

**Q.** And the IC50 (MKN-7)?
**A.** > 32000 nM

**Q.** And the IC50 (SK-MM-2)?
**A.** > 32000 nM

**Q.** And the IC50 (CMK)?
**A.** 3150 nM

**Q.** What about the IC50 (Capan-2) of the same compound?
**A.** > 32000 nM

**Q.** And the IC50 (PANC-08-13)?
**A.** > 32000 nM

**Q.** What about the IC50 (Daoy) of the same compound?
**A.** 3250 nM

**Q.** And the IC50 (HuCCT-1)?
**A.** 20100 nM

**Q.** What about the IC50 (SW948) of the same compound?
**A.** > 32000 nM

**Q.** What about the IC50 (BC-3) of the same compound?
**A.** > 32000 nM

**Q.** What about the IC50 (NCI-H1694) of the same compound?
**A.** > 32000 nM

**Q.** And the IC50 (LU-99A)?
**A.** > 32000 nM

**Q.** And the IC50 (SN12C)?
**A.** > 32000 nM

**Q.** And the IC50 (A673)?
**A.** > 32000 nM

**Q.** What about the IC50 (RMG-I) of the same compound?
**A.** > 32000 nM

**Q.** What about the IC50 (MHH-CALL-2) of the same compound?
**A.** > 32000 nM

**Q.** And the IC50 (SW626)?
**A.** > 32000 nM

**Q.** And the IC50 (TCC-SUP)?
**A.** > 32000 nM

**Q.** And the IC50 (K052)?
**A.** > 32000 nM

**Q.** What about the IC50 (SK-HEP1) of the same compound?
**A.** > 32000 nM

**Q.** And the IC50 (EFO-27)?
**A.** > 32000 nM

**Q.** And the IC50 (OVCAR-5)?
**A.** > 32000 nM

**Q.** And the IC50 (NCI-H1436)?
**A.** > 32000 nM

**Q.** And the IC50 (HT55)?
**A.** > 32000 nM

**Q.** And the IC50 (NCI-H748)?
**A.** > 32000 nM

**Q.** And the IC50 (G-361)?
**A.** > 32000 nM

**Q.** What does the source list for `CCC/C=C/C=C/C(=O)O[C@H]1/C(=C/C(=O)OC)C[C@H]2C[C@H]([C@@H](C)O)OC(=O)C[C@H](O)C[C@@H]3C[C@H](OC(C)=O)C(C)(C)[C@](O)(C[C@@H]4C/C(=C/C(=O)OC)C[C@H](/C=C/C(C)(C)[C@]1(O)O2)O4)O3` [BRYOSTATIN 1]?
**A.** IC50 (CAL-33): > 8 nM; IC50 (G-402): > 8 nM; IC50 (HMV-2 cell line): 2.26 nM; IC50 (NCI-H2452): > 8 nM; IC50 (U-118-MG): > 8 nM; IC50 (WM-115): > 8 nM; IC50 (23132-87): > 8 nM; IC50 (BHY): > 8 nM; IC50 (BFTC-909): > 8 nM; IC50 (NCI-H358): > 8 nM; IC50 (MKN-1): > 8 nM; IC50 (LC4-1): > 8 nM; IC50 (Raji): > 8 nM; IC50 (C32): > 8 nM; IC50 (CAL-12T): > 8 nM; IC50 (A-427): > 8 nM; IC50 (NCI-H810): > 8 nM; IC50 (SF-295): > 8 nM; IC50 (IGROV-1): > 8 nM; IC50 (MKN-7): > 8 nM; IC50 (SK-MM-2): > 8 nM; IC50 (CMK): > 8 nM; IC50 (Capan-2): > 8 nM; IC50 (PANC-08-13): > 8 nM; IC50 (Daoy): > 8 nM; IC50 (HuCCT-1): > 8 nM; IC50 (SW948): > 8 nM; IC50 (BC-3): > 8 nM; IC50 (NCI-H1694): > 8 nM; IC50 (LU-99A): > 8 nM; IC50 (SN12C): > 8 nM; IC50 (A673): > 8 nM; IC50 (RMG-I): > 8 nM; IC50 (MHH-CALL-2): > 8 nM; IC50 (SW626): > 8 nM; IC50 (TCC-SUP): > 8 nM; IC50 (K052): > 8 nM; IC50 (SK-HEP1): > 8 nM; IC50 (EFO-27): > 8 nM; IC50 (OVCAR-5): > 8 nM; IC50 (NCI-H1436): > 8 nM; IC50 (HT55): > 8 nM; IC50 (NCI-H748): > 8 nM; IC50 (G-361): > 8 nM

**Q.** Which results are given for `COC1=CC(c2cc3ccccc3[nH]2)=N/C1=C\c1[nH]c(C)cc1C` [OBATOCLAX MESYLATE]?
**A.** IC50 (CAL-33): 508 nM; IC50 (G-402): 565 nM; IC50 (HMV-2 cell line): 52.4 nM; IC50 (NCI-H2452): > 16000 nM; IC50 (U-118-MG): 409 nM; IC50 (WM-115): 4510 nM; IC50 (23132-87): 828 nM; IC50 (BHY): < 62.5 nM; IC50 (BFTC-909): 453 nM; IC50 (NCI-H358): 78.8 nM; IC50 (MKN-1): 304 nM; IC50 (LC4-1): 514 nM; IC50 (Raji): 1020 nM; IC50 (C32): 452 nM; IC50 (CAL-12T): < 62.5 nM; IC50 (A-427): 85.1 nM; IC50 (NCI-H810): 117 nM; IC50 (SF-295): 340 nM; IC50 (IGROV-1): < 62.5 nM; IC50 (MKN-7): 1890 nM; IC50 (SK-MM-2): 577 nM; IC50 (CMK): 30.2 nM; IC50 (Capan-2): 666 nM; IC50 (PANC-08-13): 1340 nM; IC50 (Daoy): 56.2 nM; IC50 (HuCCT-1): 83.3 nM; IC50 (SW948): 7580 nM; IC50 (BC-3): 2370 nM; IC50 (NCI-H1694): 919 nM; IC50 (LU-99A): 784 nM; IC50 (SN12C): 886 nM; IC50 (A673): 752 nM; IC50 (RMG-I): 782 nM; IC50 (MHH-CALL-2): 609 nM; IC50 (SW626): 72 nM; IC50 (TCC-SUP): 1250 nM; IC50 (K052): 940 nM; IC50 (SK-HEP1): 196 nM; IC50 (EFO-27): 340 nM; IC50 (OVCAR-5): 311 nM; IC50 (NCI-H1436): 1260 nM; IC50 (HT55): 2790 nM; IC50 (NCI-H748): 10600 nM; IC50 (G-361): < 62.5 nM
